Results on eight compounds are retold here after ChEMBL document CHEMBL1201862, “PubChem BioAssay data set” (2004).

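Values below derive from 48-hour exposures of cells grown in 96-well plates, with endpoints linearly interpolated between the two concentrations bracketing the appropriate inhibition level. The concentration for 50% growth inhibition is given as GI50.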 Activity calls are given as the source filed them. Cut-off read from the data, not from the text of the source: active = GI50 up to about 1.1 µM and inactive = higher. Numbered stars: 1 amine (or outer) side, 2 acyl side, 3 side chain; on linkers, the order of the positions; unused ones are H or OH. Bridge positions count the residues as written; N and C are the ends. Square brackets hold non-standard residues; d marks the D form. Peptide text beside a SMILES is read from it. I, II: the chains in the order shown. Actinocin(9to1) = Cc1c2oc3c(C)ccc(C(=O)[*:1])c3nc-2c(C(=O)[*:2])c(N)c1=O; NMeH = CN[CH](Cc1c[nH]cn1)C(=O)O; Sar = CNCC(=O)O A value given as a limit tells only on which side of the number the result lay.

Some test systems named below: BT-549; CCRF-CEM; COLO 205; DU-145; HCT-15; HOP-62; MDA-N; Malme-3M; NCI-H226; NCI-H522; OVCAR-5; PC-3; SK-OV-3; SN12C; SNB-75; T47D; U-251; IGROV-1; HOP-92.
Holding throughout (assay): NCI tumour cell line growth inhibition, 48 h

With `CC1(C)C2CC(O)C1CCC2=O` (stereo unspecified), the GI50 was > 100 µM (inactive) in the test with BT-549; > 100 µM (inactive) in the test with CCRF-CEM; > 100 µM (inactive) in the test on COLO 205; > 100 µM (inactive) in the test with DU-145; more than 100 µM in the test with HCT-15; > 100 µM (inactive) in the test on HOP-62. Further, the GI50 in the test with MDA-N, in the test with Malme-3M, in the test with NCI-H226, in the test on NCI-H522, in the test on OVCAR-5 and in the test on PC-3 was > 100 µM (inactive) in each case. For the same compound, the GI50 with SK-OV-3, with SN12C, with SNB-75, in the test on T47D and in the test on U-251 was > 100 µM (inactive) throughout.

Turning to `Cc1sc2c(c1C)/C(=N\O)c1cccn1-2`, the GI50 with BT-549 was 42.1 µM (inactive); in the test with CCRF-CEM, 3.6 µM (inactive); in the test on COLO 205, > 100 µM (inactive); with DU-145 it was 61 µM (inactive); in the test with HCT-15, 81.8 µM; in the test with HOP-62, 25.3 µM (inactive). In addition, the GI50 in the test with IGROV-1 was 24.3 µM (inactive); in the test on MDA-N, 40.6 µM (inactive); with Malme-3M, 45.1 µM (inactive); in the test with NCI-H226, 29.7 µM (inactive); in the test on NCI-H522 it was 19 µM (inactive); in the test with OVCAR-5 it was > 100 µM (inactive). For the same compound, the GI50 in the test on PC-3 is 29.9 µM (inactive); in the test on SK-OV-3, 39.7 µM (inactive); with SN12C, 38.5 µM (inactive); with SNB-75, 16.2 µM (inactive); with T47D, 25.1 µM (inactive); in the test with U-251, 26.7 µM (inactive).

With `O=C(CCn1ccnc1[N+](=O)[O-])NCCCn1ccnc1[N+](=O)[O-]`, the GI50 in the test with BT-549 is > 100 µM (inactive); in the test with CCRF-CEM, > 100 µM (inactive); with COLO 205, > 100 µM (inactive); with DU-145, > 100 µM (inactive); in the test on HCT-15, more than 100 µM; in the test on HOP-62, > 100 µM (inactive). The GI50 in the test with IGROV-1, with MDA-N, in the test on Malme-3M, in the test with NCI-H226, in the test with NCI-H522 and in the test with OVCAR-5 was > 100 µM (inactive) in each case. In addition, the GI50 in the test with PC-3, with SK-OV-3, in the test on SN12C, in the test with SNB-75, in the test on T47D and with U-251 was > 100 µM (inactive) in each case.

On to `CC1(C)O[C@H]([C@H](O)c2nnc3ccc(Cl)nn23)[C@@H]([C@H]2COC(C)(C)O2)O1`, for which the GI50 in the test on BT-549 is > 100 µM (inactive); in the test with CCRF-CEM, > 100 µM (inactive); with COLO 205, > 100 µM (inactive); in the test with DU-145 it was > 100 µM (inactive); in the test with HCT-15, more than 100 µM; with HOP-62, > 100 µM (inactive). For the same compound, the GI50 in the test on IGROV-1, in the test with MDA-N, with Malme-3M, in the test on NCI-H522, in the test with OVCAR-5 and in the test on PC-3 was > 100 µM (inactive) throughout. Besides, the GI50 in the test with SK-OV-3, in the test with SN12C, in the test with T47D and in the test on U-251 was > 100 µM (inactive) throughout.

As for `CCCC(=O)Nc1cc(/C=C/C(=O)N2CC(CCl)c3ccc([N+](=O)[O-])cc32)n(C)c1` (stereo unspecified), the GI50 in the test with BT-549 is 4.07 µM (inactive); in the test on CCRF-CEM it was 0.568 µM (active); with COLO 205, > 100 µM (inactive); with DU-145 it was > 100 µM (inactive); with HCT-15, more than 100 µM; with IGROV-1 it was 65 µM (inactive). Moreover, the GI50 in the test on MDA-N was > 100 µM (inactive); with Malme-3M, > 100 µM (inactive); with NCI-H226, 21.8 µM (inactive); in the test with NCI-H522, 28.8 µM (inactive); in the test on OVCAR-5 it was > 100 µM (inactive); in the test on PC-3, > 100 µM (inactive). Further, the GI50 with SK-OV-3 was > 100 µM (inactive); in the test on SN12C, > 100 µM (inactive); in the test with SNB-75, > 100 µM (inactive); in the test with T47D it was 70 µM (inactive); in the test on U-251, > 100 µM (inactive).

For `Cc1c2oc3c(C)ccc(C(=O)NC4C(=O)NC(C(C)C)C(=O)N5CCCC5C(=O)N(C)CC(=O)N(C)C(Cc5cnc[nH]5)C(=O)OC4C)c3nc-2c(C(=O)NC2C(=O)NC(C(C)C)C(=O)N3CCCC3C(=O)N(C)CC(=O)N(C)C(Cc3cnc[nH]3)C(=O)OC2C)c(N)c1=O` (stereo unspecified) (I: TVP[Sar][NMeH] / II: TVP[Sar][NMeH]; ester I:1-I:C, II:1-II:C; linker I:N-II:N via Actinocin(9to1); configuration not given here), the GI50 in the test with BT-549 is > 100 µM (inactive); with CCRF-CEM, 59 µM (inactive); in the test with COLO 205, 31.3 µM (inactive); in the test on HCT-15 it was more than 100 µM; in the test on HOP-62, 43.5 µM (inactive); with HOP-92, 40.6 µM (inactive). Also, the GI50 in the test with IGROV-1 was 47.3 µM (inactive); in the test on MDA-N, 25.2 µM (inactive); in the test on Malme-3M it was 55.7 µM (inactive); with NCI-H226, 56.2 µM (inactive); in the test on NCI-H522 it was 16.8 µM (inactive); in the test with OVCAR-5 it was > 100 µM (inactive). In addition, the GI50 was 55 µM (inactive) in the test on PC-3; 69.3 µM (inactive) in the test with SK-OV-3; 57 µM (inactive) in the test on SN12C; 66.8 µM (inactive) in the test on SNB-75; 47.5 µM (inactive) in the test on T47D; 57.1 µM (inactive) in the test on U-251.

Consider `C#CCOC(=O)C=[N+]=[N-]`, for which the GI50 was > 10 µM (inactive) in the test with BT-549; > 10 µM (inactive) in the test on CCRF-CEM; > 10 µM (inactive) with DU-145; more than 10 µM in the test on HCT-15; > 10 µM (inactive) with HOP-62; > 10 µM (inactive) in the test with HOP-92. In addition, the GI50 with IGROV-1, in the test on MDA-N, in the test on Malme-3M, in the test with NCI-H226, in the test with OVCAR-5 and with PC-3 was > 10 µM (inactive) throughout. The GI50 in the test with SK-OV-3, in the test on SN12C, in the test on T47D and with U-251 was > 10 µM (inactive) in each case.

Consider `N=c1oc2c(Cl)cc(Cl)cc2cc1C(=O)Nc1ccccn1`, for which the GI50 with BT-549 is 41.4 µM (inactive); in the test on CCRF-CEM, 22 µM (inactive); in the test with COLO 205 it was > 100 µM (inactive); in the test on DU-145 it was 72.4 µM (inactive); in the test on HCT-15, 34.8 µM; in the test with HOP-62, 16.4 µM (inactive). Further, the GI50 with MDA-N is 62.1 µM (inactive); with Malme-3M it was > 100 µM (inactive); in the test with NCI-H226, > 100 µM (inactive); in the test on OVCAR-5, > 100 µM (inactive); in the test with PC-3 it was 52 µM (inactive); with SK-OV-3, 67.5 µM (inactive). In addition, the GI50 in the test with SN12C is 99.3 µM (inactive); with SNB-75, 14.3 µM (inactive); in the test on T47D, 74.8 µM (inactive); with U-251 it was 37.2 µM (inactive).
